The values below are quoted from earlier work in patent US20250340636A1, “ANTIBODIES TARGETING L1CAM AND USES THEREOF” (MEMORIAL SLOAN-KETTERING CANCER CENTER, priority 2023, published 2025).

SMILES strings stand for the structures.

The conditions of this data set: free drug, mice (Quintieri et al. 2005); cited from earlier work.

Take `COc1cccc2c1C(=O)c1c(O)c3c(c(O)c1C2=O)C[C@@](O)(C(=O)CO)C[C@@H]3O[C@H]1C[C@H]2[C@H](O[C@@H]3[C@@H](OC)OCCN32)[C@H](C)O1` [PNU-159682]: the maximum tolerated dose is 0.015 mg/kg.
